Source: ChEMBL document CHEMBL3526034 (Drug Metab Dispos, 2013)

Tests used:
MDR1 (P-gp, ABCB1) [1] = target: T1, MDR1 (P-gp, ABCB1) (Homo sapiens, UniProt P08183); experiment: Activity at human MDR1 expressed in MDCK2 cells assessed as apical to basolateral mass balance at 3 uM by liquid scintillation counting analysis in presence of 3 uM P-gp and BCRP inhibitor GF120918; assay type: ADME, cell-based, MDCK-II; details: with GF120918 (P-gp and BCRP inhibitor), read-out: Activity
Cytochrome P450 2D6 = Cytochrome P450 2D6 (Homo sapiens, UniProt P10635); experiment: Metabolism-dependent inhibition of CYP2D6 in human liver microsomes using bufuralol as substrate preincubated for 20 mins with NADPH prior to initiation of reaction with probe substrate by HPLC analysis; assay type: ADME
[2] = Protein binding in plasma (unknown origin); assay type: ADME, cell-free; details: read-out: PPB
Cytochrome P450 2B6 [3] = target: T2, Cytochrome P450 2B6 (Homo sapiens, UniProt P20813); experiment: Inhibition of CYP2B6 in human liver microsomes using bupropion as substrate preincubated for 20 mins with substrate prior to initiation of reaction with NADPH by HPLC analysis; assay type: ADME
T2 sequence (P20813 whole entry): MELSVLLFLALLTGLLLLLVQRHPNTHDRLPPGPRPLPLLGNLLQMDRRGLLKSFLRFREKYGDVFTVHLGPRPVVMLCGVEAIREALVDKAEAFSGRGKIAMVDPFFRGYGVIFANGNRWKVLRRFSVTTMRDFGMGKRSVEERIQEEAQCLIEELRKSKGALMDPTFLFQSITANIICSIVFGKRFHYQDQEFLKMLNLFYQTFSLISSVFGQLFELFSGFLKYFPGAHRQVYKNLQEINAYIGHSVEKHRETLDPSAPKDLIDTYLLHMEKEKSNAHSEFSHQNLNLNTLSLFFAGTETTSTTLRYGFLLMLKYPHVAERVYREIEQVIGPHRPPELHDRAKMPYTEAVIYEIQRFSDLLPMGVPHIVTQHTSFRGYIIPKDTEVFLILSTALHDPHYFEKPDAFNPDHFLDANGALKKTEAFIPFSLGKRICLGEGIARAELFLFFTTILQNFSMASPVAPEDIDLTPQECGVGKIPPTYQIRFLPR

Cytochrome P450 2C9 = Cytochrome P450 2C9 (Homo sapiens, UniProt P11712); experiment: Metabolism-dependent inhibition of CYP2C9 in human liver microsomes using diclofenac as substrate preincubated for 20 mins with NADPH prior to initiation of reaction with probe substrate by HPLC analysis; assay type: ADME
Sequence of Cytochrome P450 2C9 (P11712 whole entry): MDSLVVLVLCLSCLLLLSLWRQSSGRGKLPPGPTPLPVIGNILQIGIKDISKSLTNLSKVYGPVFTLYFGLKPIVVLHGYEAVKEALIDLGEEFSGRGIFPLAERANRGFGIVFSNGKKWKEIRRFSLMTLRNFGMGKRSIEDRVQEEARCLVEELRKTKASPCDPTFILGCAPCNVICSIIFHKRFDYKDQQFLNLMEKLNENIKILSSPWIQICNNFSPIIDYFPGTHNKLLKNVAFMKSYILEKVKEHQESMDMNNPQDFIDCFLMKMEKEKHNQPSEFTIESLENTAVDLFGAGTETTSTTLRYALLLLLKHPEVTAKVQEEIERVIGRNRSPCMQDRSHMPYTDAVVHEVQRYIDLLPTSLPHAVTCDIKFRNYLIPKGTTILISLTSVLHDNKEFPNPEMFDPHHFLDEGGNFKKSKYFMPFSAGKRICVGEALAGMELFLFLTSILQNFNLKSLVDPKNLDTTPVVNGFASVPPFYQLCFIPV

[4] = target: ATP-binding cassette sub-family C member 2 (Homo sapiens, UniProt Q92887); experiment: Inhibition of human MRP2 expressed in baculovirus-infected Sf9 cell membrane vesicle using [3H]estradiol 17beta-D-glucuronide as substrate preincubated with vesicles for 5 mins prior to substrate addition by liquid scintillation counting analysis
Sequence of ATP-binding cassette sub-family C member 2 (Q92887 whole entry): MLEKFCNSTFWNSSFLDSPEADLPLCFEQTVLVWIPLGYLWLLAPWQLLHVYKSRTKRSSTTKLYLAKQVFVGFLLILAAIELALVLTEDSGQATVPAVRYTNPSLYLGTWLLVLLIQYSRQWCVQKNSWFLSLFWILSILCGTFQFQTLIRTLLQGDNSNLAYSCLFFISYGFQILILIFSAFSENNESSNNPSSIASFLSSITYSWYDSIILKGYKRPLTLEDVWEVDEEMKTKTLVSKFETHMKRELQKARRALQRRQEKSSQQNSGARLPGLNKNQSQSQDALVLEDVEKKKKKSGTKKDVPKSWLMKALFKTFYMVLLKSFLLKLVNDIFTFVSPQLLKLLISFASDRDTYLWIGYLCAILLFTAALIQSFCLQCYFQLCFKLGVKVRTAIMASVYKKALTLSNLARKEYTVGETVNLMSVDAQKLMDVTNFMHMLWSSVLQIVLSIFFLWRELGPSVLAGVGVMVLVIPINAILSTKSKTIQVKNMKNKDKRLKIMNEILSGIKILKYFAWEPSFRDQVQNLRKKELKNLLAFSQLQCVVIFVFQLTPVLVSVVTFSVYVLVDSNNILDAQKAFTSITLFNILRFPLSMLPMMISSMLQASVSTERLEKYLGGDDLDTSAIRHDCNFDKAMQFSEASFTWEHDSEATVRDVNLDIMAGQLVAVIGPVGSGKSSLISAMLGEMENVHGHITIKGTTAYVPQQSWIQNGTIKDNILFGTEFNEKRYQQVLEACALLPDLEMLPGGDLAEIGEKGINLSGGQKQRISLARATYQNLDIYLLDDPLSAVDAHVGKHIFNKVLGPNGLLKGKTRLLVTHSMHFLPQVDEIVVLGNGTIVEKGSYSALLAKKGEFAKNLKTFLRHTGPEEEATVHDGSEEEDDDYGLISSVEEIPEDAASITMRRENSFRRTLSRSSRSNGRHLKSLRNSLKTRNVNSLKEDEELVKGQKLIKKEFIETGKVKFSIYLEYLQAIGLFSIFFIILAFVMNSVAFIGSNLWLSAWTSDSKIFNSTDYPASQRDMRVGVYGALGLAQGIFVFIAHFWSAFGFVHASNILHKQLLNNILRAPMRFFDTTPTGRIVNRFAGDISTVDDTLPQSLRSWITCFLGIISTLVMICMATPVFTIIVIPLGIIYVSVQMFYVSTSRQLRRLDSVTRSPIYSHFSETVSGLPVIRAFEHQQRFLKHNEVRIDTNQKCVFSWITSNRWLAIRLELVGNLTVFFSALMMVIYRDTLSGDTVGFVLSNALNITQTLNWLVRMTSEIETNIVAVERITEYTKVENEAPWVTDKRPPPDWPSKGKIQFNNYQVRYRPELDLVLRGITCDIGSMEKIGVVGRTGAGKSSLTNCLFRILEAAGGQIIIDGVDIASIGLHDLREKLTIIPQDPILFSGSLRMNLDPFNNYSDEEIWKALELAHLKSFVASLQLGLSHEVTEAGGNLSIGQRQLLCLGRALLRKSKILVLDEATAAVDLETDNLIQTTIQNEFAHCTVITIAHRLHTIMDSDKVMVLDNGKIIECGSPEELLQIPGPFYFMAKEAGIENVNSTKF

[5] = target: T3, UDP-glucuronosyltransferase 1A1 (Homo sapiens, UniProt P22309); experiment: Drug metabolism assessed as UDPGA-fortified human recombinant UGT1A1-mediated DTG glucuronide metabolite ((2S,3S,4S,5R,6S)-6-((4R,12aS)-9-(2,4-difluorobenzylcarbamoyl)-4-methyl-6,8-dioxo-3,4,6,8,12,12a-hexahydro-2H-[1,3]oxazino[3,2-d]pyrido[1,2-a]pyrazin-7-yloxy)-3,4,5-trihydroxytetrahydro-2H-pyran-2-carboxylic acid) formation at 16 uM after 120 mins by radio-HPLC analysis; assay type: ADME; details: recombinant enzyme
T3 sequence (P22309 whole entry): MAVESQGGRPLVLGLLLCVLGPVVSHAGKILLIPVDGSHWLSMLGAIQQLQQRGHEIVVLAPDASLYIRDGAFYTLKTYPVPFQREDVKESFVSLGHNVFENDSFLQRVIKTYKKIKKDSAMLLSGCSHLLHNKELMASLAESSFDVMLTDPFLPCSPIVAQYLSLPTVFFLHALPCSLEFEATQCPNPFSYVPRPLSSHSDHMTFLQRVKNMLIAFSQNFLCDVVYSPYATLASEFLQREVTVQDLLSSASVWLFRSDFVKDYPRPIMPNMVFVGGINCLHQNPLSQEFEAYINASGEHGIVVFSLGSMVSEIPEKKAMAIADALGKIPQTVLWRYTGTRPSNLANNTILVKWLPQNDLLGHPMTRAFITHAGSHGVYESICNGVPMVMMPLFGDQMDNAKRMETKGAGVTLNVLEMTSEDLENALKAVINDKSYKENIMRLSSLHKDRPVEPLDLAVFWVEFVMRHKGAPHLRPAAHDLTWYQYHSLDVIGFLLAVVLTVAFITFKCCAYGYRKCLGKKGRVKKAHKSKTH

Cytochrome P450 2B6 [6] = target: T2, Cytochrome P450 2B6; experiment: Drug metabolism in supersomes expressing human recombinant CYP2B6 assessed as NADPH-fortified enzyme-mediated metabolite formation at 5 uM after 120 mins by radio HPLC analysis; assay type: ADME; details: 2 h
MDR1 (P-gp, ABCB1) [7] = target: T1, MDR1 (P-gp, ABCB1); experiment: Activity at human MDR1 expressed in MDCK2 cells assessed as basolateral to apical mass balance at 3 uM by liquid scintillation counting analysis; assay type: ADME, cell-based, MDCK-II; details: MDCK-MDR1, read-out: Activity
[8] = In vitro passive membrane permeability across dog MDCK2 cells at 3 uM using fasted state-simulated intestinal fluid buffer at pH 5.5 on donor side and 1% human serum albumin at pH 7.4 on receiver side by liquid scintillation counting analysis; assay type: ADME, cell-based, Canis lupus familiaris, MDCK-II; details: MDCK, read-out: permeability
CYP2C9 = CYP2C9 (Homo sapiens, UniProt P11712); experiment: Inhibition of CYP2C9 in human liver microsomes using diclofenac as substrate at 100 uM preincubated for 20 mins with substrate prior to initiation of reaction with NADPH by HPLC analysis; assay type: ADME; details: probe diclofenac
Sequence of CYP2C9 (P11712 whole entry): as the sequence (P11712 whole entry) above

Cytochrome P450 2C19 = Cytochrome P450 2C19 (Homo sapiens, UniProt P33261); experiment: Drug metabolism in supersomes expressing human recombinant CYP2C19 assessed as NADPH-fortified enzyme-mediated metabolite formation at 5 uM after 120 mins by radio HPLC analysis; assay type: ADME; details: 2 h
Sequence of Cytochrome P450 2C19 (P33261 whole entry): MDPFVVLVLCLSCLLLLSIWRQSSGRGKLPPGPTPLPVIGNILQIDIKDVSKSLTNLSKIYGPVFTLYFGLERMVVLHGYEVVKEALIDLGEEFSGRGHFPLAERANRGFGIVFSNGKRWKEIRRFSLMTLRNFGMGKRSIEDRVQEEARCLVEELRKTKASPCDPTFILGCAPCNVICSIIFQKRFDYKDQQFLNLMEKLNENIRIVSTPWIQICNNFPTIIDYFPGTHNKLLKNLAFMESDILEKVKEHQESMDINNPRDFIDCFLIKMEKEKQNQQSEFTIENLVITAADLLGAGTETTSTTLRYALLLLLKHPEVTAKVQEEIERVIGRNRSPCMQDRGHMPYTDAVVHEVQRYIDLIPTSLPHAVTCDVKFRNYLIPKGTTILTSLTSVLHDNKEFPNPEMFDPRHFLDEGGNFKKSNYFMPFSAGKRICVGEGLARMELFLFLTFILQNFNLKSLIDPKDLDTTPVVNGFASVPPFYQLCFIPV

[9] = target: Solute carrier family 22 member 2 (Homo sapiens, UniProt O15244); experiment: Inhibition of human OCT2 expressed in MDCK2 cells using [14C]metformin as substrate at 25 uM by liquid scintillation counting analysis; assay type: ADME, cell-based; details: mdck-ii
Sequence of Solute carrier family 22 member 2 (O15244 whole entry): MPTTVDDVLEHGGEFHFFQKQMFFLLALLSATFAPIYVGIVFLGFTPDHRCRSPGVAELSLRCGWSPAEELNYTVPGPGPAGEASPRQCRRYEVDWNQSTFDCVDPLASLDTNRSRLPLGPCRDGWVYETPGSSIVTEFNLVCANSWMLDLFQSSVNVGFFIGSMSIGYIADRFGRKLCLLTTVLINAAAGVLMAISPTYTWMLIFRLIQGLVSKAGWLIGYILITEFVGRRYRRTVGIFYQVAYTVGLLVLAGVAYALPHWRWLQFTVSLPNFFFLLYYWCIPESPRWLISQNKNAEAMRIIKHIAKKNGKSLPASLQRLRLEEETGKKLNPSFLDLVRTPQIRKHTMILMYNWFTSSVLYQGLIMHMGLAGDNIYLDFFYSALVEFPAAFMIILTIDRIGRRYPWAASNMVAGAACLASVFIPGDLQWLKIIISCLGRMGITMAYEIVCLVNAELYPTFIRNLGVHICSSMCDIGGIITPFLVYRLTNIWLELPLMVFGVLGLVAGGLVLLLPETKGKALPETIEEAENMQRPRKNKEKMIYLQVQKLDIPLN

Cytochrome P450 2B6 [10] = target: T2, Cytochrome P450 2B6; experiment: Metabolism-dependent inhibition of CYP2B6 in human liver microsomes using bupropion as substrate preincubated for 20 mins with NADPH prior to initiation of reaction with probe substrate by HPLC analysis; assay type: ADME
MDR1 (P-gp, ABCB1) [11] = target: T1, MDR1 (P-gp, ABCB1); experiment: Activity at human MDR1 expressed in MDCK2 cells assessed as basolateral to apical mass balance at 3 uM by liquid scintillation counting analysis in presence of 3 uM P-gp and BCRP inhibitor GF120918; assay type: ADME, cell-based, MDCK-II; details: with GF120918 (P-gp and BCRP inhibitor), read-out: Activity

T1 sequence (P08183 whole entry): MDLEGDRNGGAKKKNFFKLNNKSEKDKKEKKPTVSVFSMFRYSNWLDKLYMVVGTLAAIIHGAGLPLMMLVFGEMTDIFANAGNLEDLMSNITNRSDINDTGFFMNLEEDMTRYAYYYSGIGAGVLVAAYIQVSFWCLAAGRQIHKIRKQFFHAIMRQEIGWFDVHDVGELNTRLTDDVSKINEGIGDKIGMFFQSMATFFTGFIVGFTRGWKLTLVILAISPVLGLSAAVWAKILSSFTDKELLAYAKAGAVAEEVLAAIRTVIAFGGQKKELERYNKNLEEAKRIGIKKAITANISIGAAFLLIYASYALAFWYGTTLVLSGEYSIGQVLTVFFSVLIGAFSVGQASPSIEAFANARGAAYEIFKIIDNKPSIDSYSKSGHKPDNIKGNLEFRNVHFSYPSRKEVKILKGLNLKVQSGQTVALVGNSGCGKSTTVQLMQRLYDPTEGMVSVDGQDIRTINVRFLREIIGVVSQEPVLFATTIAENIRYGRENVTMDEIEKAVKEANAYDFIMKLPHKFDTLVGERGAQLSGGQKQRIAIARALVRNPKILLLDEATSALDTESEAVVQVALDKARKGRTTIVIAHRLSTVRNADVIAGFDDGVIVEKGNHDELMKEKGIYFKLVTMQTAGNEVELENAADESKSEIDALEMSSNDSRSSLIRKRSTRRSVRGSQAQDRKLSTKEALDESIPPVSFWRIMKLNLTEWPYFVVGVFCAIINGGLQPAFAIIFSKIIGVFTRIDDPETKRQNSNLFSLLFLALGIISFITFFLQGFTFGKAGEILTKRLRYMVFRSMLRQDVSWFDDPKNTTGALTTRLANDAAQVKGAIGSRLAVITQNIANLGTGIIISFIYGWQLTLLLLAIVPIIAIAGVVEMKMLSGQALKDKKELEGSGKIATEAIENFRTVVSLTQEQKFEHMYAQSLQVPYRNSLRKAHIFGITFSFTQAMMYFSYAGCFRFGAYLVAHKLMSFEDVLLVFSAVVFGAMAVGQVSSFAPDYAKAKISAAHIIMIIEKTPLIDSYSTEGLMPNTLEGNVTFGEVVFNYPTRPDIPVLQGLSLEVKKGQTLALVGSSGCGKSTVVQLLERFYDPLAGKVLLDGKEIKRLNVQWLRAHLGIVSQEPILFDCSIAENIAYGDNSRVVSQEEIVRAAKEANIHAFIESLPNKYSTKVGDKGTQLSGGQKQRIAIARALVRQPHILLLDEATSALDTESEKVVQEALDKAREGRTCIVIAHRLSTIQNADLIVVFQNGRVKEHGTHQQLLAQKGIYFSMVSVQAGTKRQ

**Q.** Which results are given for C[C@@H]1CCO[C@H]2Cn3cc(C(=O)NCc4ccc(F)cc4F)c(=O)c(O)c3C(=O)N12 [DOLUTEGRAVIR]?
**A.** recovery at 3 µM (MDR1 (P-gp, ABCB1) [1]): 84%; IC50 (Cytochrome P450 2D6): > 100 µM; fraction unbound [2]: < 0.01; IC50 (Cytochrome P450 2B6 [3]): > 100 µM; IC50 (Cytochrome P450 2C9): > 100 µM; IC50 [4]: > 100 µM; Drug metabolism [5]: metabolite_detected; Drug metabolism (Cytochrome P450 2B6 [6]): metabolite_not_detected; recovery at 3 µM (MDR1 (P-gp, ABCB1) [7]): 84%; Papp at 3 µM [8]: 26.5 ×10⁻⁶ cm/s; inhibition at 100 µM (CYP2C9): 20%; Drug metabolism (Cytochrome P450 2C19): metabolite_not_detected; inhibition (INH) [9]: 91%; IC50 (Cytochrome P450 2B6 [10]): > 100 µM; recovery at 3 µM (MDR1 (P-gp, ABCB1) [11]): 75%
